Values after ≈ are worked out from the molar mass of the structure shown. Where two headings read alike, the source gives them in different places.
What was measured:
[1] = test system: Streptococcus spp. spontaneous mutants; test: organism not typed; type: cell-based
Procedure, shortened: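 Spontaneous mutants from drug selection plates were tested by CLSI broth microdilution in MHB II with two-fold serial drug dilutions. Inoculum was about 5×10^5 CFU/mL, incubated aerobically at 35° C. for 18-20 hr. MIC was the lowest concentration inhibiting visible growth.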

[2] = test system: E. coli ATCC 35218 (TEM-1 β-lactamase producer); test: Broth microdilution MIC (time-kill study); type: cell-based, Escherichia coli
[3] = test system: S. pneumoniae ATCC 49619; test: Broth microdilution MIC (time-kill study); type: cell-based, Streptococcus pneumoniae
[4] = test system: SIBO Bacteria; conditions: cited from earlier work
[5] = test system: B. vulgatus; test: Spontaneous mutation frequency and mutation prevention concentration (MPC); type: cell-based; conditions: B. vulgatus ATCC 8482
From the text: (§1) As used herein, “spontaneous mutation frequency” refers to the rate at which mutations arise in a bacterium that can lead to resistance to develop to an antimicrobial agent. “Mutation prevention concentration” or “MPC” refers to the lowest concentration of antimicrobial agent above which the selective proliferation of resistant mutants is expected to occur only rarely.

[6] = test system: Escherichia coli; test: as above; type: cell-based
From the text: as §1

[7] = test system: S. pyogenes; test: as above; type: cell-based; conditions: S. pyogenes ATCC 49399
From the text: as §1

[8] = test system: E. coli ATCC 25922; test: Time-kill assay; type: cell-based, Escherichia coli; conditions: 2×, 4×, 8× MIC; 2, 6, 24 hr
[9] = test system: E. coli MMX 1312; test: Time-kill assay; type: cell-based, Escherichia coli; conditions: 2×, 4×, 8× MIC; 2, 6, 24 hr
[10] = test system: B. vulgatus ATCC 8482; test: Time-kill assay; type: cell-based, Bacteroides vulgatus; conditions: 2×, 4×, 8× MIC; 2, 6, 24, 48 hr
[11] = S. agaloctiae ATCC 13813, selected on rifaximin 4X MIC, Colony A
[12] = S. agaloctiae ATCC 13813, selected on rifaximin 4X MIC, Colony B
[13] = S. agaloctiae ATCC 13813, selected on rifaximin 8X MIC, Colony A
[14] = S. agaloctiae ATCC 13813, selected on rifaximin 8X MIC, Colony B
[15] = S. agaloctiae ATCC 13813 Parent
[16] = S. pneumoniae ATCC 49619, selected on rifaximin 4X MIC, Colony A
[17] = S. pneumoniae ATCC 49619, selected on rifaximin 4X MIC, Colony B
[18] = S. pneumoniae ATCC 49619, selected on rifaximin 8X MIC, Colony A
[19] = S. pneumoniae ATCC 49619, selected on rifaximin 8X MIC, Colony B
[20] = S. pneumoniae ATCC 49619 Parent
[21] = S. pyogenes ATCC 49399, selected on rifaximin 4X MIC, Colony A
[22] = S. pyogenes ATCC 49399, selected on rifaximin 4X MIC, Colony B
[23] = S. pyogenes ATCC 49399, selected on rifaximin 8X MIC, Colony A
[24] = S. pyogenes ATCC 49399, selected on rifaximin 8X MIC, Colony B
[25] = rifaximin selection 4X MIC, 0.5 μg/mL
[26] = rifaximin selection 8X MIC, 1 μg/mL
[27] = E. coli ATCC 25922, rifaximin selection 4X MIC, 32 μg/mL
[28] = E. coli ATCC 25922, rifaximin selection 8X MIC, 64 μg/mL
[29] = E. coli ATCC 35218, rifaximin selection 4X MIC, 32 μg/mL, estimated by counting a quarter of the plate
[30] = E. coli ATCC 35218, rifaximin selection 8X MIC, 64 μg/mL, estimated by counting a quarter of the plate
[31] = E. coli MMX 1312, rifaximin selection 4X MIC, 16 μg/mL
[32] = E. coli MMX 1312, rifaximin selection 8X MIC, 32 μg/mL

With Penicillin the MIC [1, 11] was 0.015 µg/mL, the MIC [1, 12] was 0.015 µg/mL and the MIC [1, 13] was 0.015 µg/mL. For the same compound, the MIC [1, 14] was 0.015 µg/mL, the MIC [1, 15] was 0.015 µg/mL and the MIC [1, 16] was 0.12 µg/mL. For the same compound, the MIC [1, 17] was 0.25 µg/mL, the MIC [1, 18] was 0.25 µg/mL and the MIC [1, 19] was 0.25 µg/mL. It also gave an MIC [1, 20] of 0.25 µg/mL, an MIC [1, 21] of 0.004 µg/mL and an MIC [1, 22] of 0.008 µg/mL. For the same compound, the MIC [1, 23] was 0.004 µg/mL, the MIC [1, 24] was 0.004 µg/mL and the MIC ([1]; S. pyogenes ATCC 49399 Parent) was 0.008 µg/mL.

For “piperacillin/tazobactam [piperacillin-tazobactam]”, the MIC ([2]; E. coli ATCC 35218) is given as 2/4, the MIC ([3]; S. pneumoniae ATCC 49619) is given as 1 µg/mL and the “activity against SIBO organisms” value [4] is given as “active against SIBO organisms”.

With `CO[C@H]1/C=C/O[C@@]2(C)Oc3c(C)c(O)c4c(O)c(c5c(nc6cc(C)ccn65)c4c3C2=O)NC(=O)/C(C)=C\C=C\[C@H](C)[C@H](O)[C@@H](C)[C@@H](O)[C@@H](C)[C@H](OC(C)=O)[C@@H]1C` [rifaximin] the MFC [5] was >1 µg/mL, the “Average Count” value [5, 25] was 5 CFU and the “Count 1” value [5, 25] was 6 CFU. For the same compound, the “Count 2” value [5, 25] was 4 CFU, the “Spontaneous Mutation Frequency” value [5, 25] was 8.70 × 10^−10 and the “Average Count” value [5, 26] was 4 CFU. For the same compound, the “Count 1” value [5, 26] was 2 CFU, the “Count 2” value [5, 26] was 5 CFU and the “Spontaneous Mutation Frequency” value [5, 26] was 6.96 × 10^−10. For the same compound, the MFC ([6]; E. coli ATCC 25922) was >64 µg/mL, the “Average Count” value [6, 27] was “TNTC” and the “Count 1” value [6, 27] was “TNTC”. The “Count 2” value [6, 27] was “TNTC”, the “Spontaneous Mutation Frequency” value ([6]; E. coli ATCC 25922, rifaximin selection 4X MIC, 32 μg/mL, based on estimated count of >500 average CFU) was >2.24 × 10^−8 and the “Average Count” value [6, 28] was “TNTC”. The “Count 1” value [6, 28] was “TNTC”, the “Count 2” value [6, 28] was “TNTC” and the “Spontaneous Mutation Frequency” value ([6]; E. coli ATCC 25922, rifaximin selection 8X MIC, 64 μg/mL, based on estimated count of >500 average CFU) was >2.24 × 10^−8. For the same compound, the MFC ([6]; E. coli ATCC 35218) was >64 µg/mL, the “Spontaneous Mutation Frequency” value ([6]; E. coli ATCC 35218, rifaximin selection 4X MIC, 32 μg/mL) was 2.37 × 10^−8 and the “Average Count” value [6, 29] was 688^2 CFU. For the same compound, the “Count 2” value [6, 29] was 600^1 CFU, the “Spontaneous Mutation Frequency” value ([6]; E. coli ATCC 35218, rifaximin selection 8X MIC, 64 μg/mL) was 1.15 × 10^−8 and the “Average Count” value [6, 30] was 332^1 CFU. For the same compound, the “Count 1” value [6, 30] was 360^1 CFU, the “Count 2” value [6, 30] was 304^1 CFU and the MFC ([6]; E. coli MMX 1312) was >32 µg/mL. The “Average Count” value [6, 31] was “TNTC”, the “Count 1” value [6, 31] was “TNTC” and the “Count 2” value [6, 31] was “TNTC”. For the same compound, the “Spontaneous Mutation Frequency” value ([6]; E. coli MMX 1312, rifaximin selection 4X MIC, 16 μg/mL, based on estimated count of >500 average CFU) was >2.06 × 10^−8, the “Average Count” value [6, 32] was “TNTC” and the “Count 1” value [6, 32] was “TNTC”. For the same compound, the “Count 2” value [6, 32] was “TNTC”, the “Spontaneous Mutation Frequency” value ([6]; E. coli MMX 1312, rifaximin selection 8X MIC, 32 μg/mL, based on estimated count of >500 average CFU) was >2.06 × 10^−8 and the MFC [7] was >1 µg/mL. For the same compound, the “Average Count” value [7, 25] was 83 CFU, the “Count 1” value [7, 25] was 78 CFU and the “Count 2” value [7, 25] was 87 CFU. For the same compound, the “Spontaneous Mutation Frequency” value [7, 25] was 1.51 × 10^−8, the “Average Count” value [7, 26] was 84 CFU and the “Count 1” value [7, 26] was 78 CFU. The “Count 2” value [7, 26] was 89 CFU, the “Spontaneous Mutation Frequency” value [7, 26] was 1.53 × 10^−8 and the MIC ([2]; E. coli ATCC 35218) was 4 µg/mL (≈ 5.09 µM). For the same compound, the MIC ([2]; broth microdilution) was 4 µg/mL (≈ 5.09 µM), the MIC ([3]; S. pneumoniae ATCC 49619) was 0.06 µg/mL (≈ 0.0763 µM) and the MIC ([3]; broth microdilution) was 0.06 µg/mL (≈ 0.0763 µM). For the same compound, the “time-kill kinetics outcome (bactericidal = ≥3 log reduction in CFU per mL)” value [8] was “bacteriostatic effect at 2-6 hr with regrowth between 6 and 24 hr”, the “time-kill kinetics outcome (bactericidal = ≥3 log reduction in CFU per mL)” value [9] was “Regrowth was also observed for all concentrations” and the “time-kill kinetics outcome (bactericidal = ≥3 log reduction in CFU per mL)” value [10] was “bactericidal against this organism at 8×MIC at 6 hr; and at 2 and 4×MIC at 6, 24 and 48 hr”. For the same compound, the MIC [1, 11] was >8 µg/mL, the MIC [1, 12] was >8 µg/mL and the MIC [1, 13] was >8 µg/mL. For the same compound, the MIC [1, 14] was >8 µg/mL, the MIC [1, 15] was 0.12 µg/mL (≈ 0.153 µM) and the MIC [1, 16] was >8 µg/mL. The MIC [1, 17] was >8 µg/mL, the MIC [1, 18] was >8 µg/mL and the MIC [1, 19] was >8 µg/mL. The MIC [1, 20] was 0.015 µg/mL (≈ 0.0191 µM), the MIC [1, 21] was >8 µg/mL and the MIC [1, 22] was >8 µg/mL. The MIC [1, 23] was >8 µg/mL, the MIC [1, 24] was >8 µg/mL and the MIC ([1]; S. pyogenes ATCC 49399 Parent) was 0.06 µg/mL (≈ 0.0763 µM). The “broth microdilution MIC of selected colonies relative to parent strain” value ([1]; colonies selected at 4× and 8× the MIC) was “several-fold higher”.

For `CN[C@H](CC(C)C)C(=O)N[C@H]1C(=O)N[C@@H](CC(N)=O)C(=O)N[C@H]2C(=O)N[C@H]3C(=O)N[C@H](C(=O)N[C@H](C(=O)O)c4cc(O)cc(O)c4-c4cc3ccc4O)[C@H](O)c3ccc(c(Cl)c3)Oc3cc2cc(c3O[C@@H]2O[C@H](CO)[C@@H](O)[C@H](O)[C@H]2O[C@H]2C[C@](C)(N)[C@H](O)[C@H](C)O2)Oc2ccc(cc2Cl)[C@H]1O` [vancomycin, Vancomycin], the MIC ([2]; Escherichia coli, ATCC35218, E. coli ATCC 35218, read-out: MIC) was > 16 µg/mL and the MIC ([3]; Streptococcus pneumoniae, ATCC49619, S. pneumoniae ATCC 49619, read-out: MIC) was 0.25 µg/mL (≈ 0.173 µM).
